Results on two compounds are retold here after US11911382B2, “Method for treating pulmonary arterial hypertension and associated pulmonary arterial hypertension” (Altavant Sciences GmbH, priority 2018, dated 2024).

One series deals with serotonin biomarkers. Briefly: divided dose studies in rats. In kind it is in vivo, rat.
The test system of a further series is 5-HIAA. Kind of series: plasma 5-HIAA in healthy human subjects. In kind it is in vivo. Conditions: 400 mg BID, Day 1 to Day 14. As to the method: (§1) Mean change in plasma 5-HIAA may be about −53% from Day 1 to Day 14, whereas placebo may be about +26%. Interpolation of KAR5417 AUC between 400 mg and 800 mg BID regimens may show 500-600 mg BID in humans will achieve the target exposure associated with efficacy in rat models.

For series [1], the system named is established PAH, SUGEN-hypoxia treatment model. Kind of series: SUGEN-hypoxia treatment model for established PAH. The series is classed as in vivo. The settings on record: rat, oral RVT-1201 100 mg/kg/day.
The nature of series [2]: safety and tolerability in healthy human subjects. In kind it is in vivo. Conditions: doses required to achieve clinically-relevant AUC. As to the method:
(§2) Healthy human subjects (n=˜120) may receive RVT-1201.
as §1

In the next series the target is T1, TPH1 (Mus musculus, UniProt P17532).
T1 construct: from tissue; host or cells: live mice (in vivo)
T1 sequence (P17532 1-447): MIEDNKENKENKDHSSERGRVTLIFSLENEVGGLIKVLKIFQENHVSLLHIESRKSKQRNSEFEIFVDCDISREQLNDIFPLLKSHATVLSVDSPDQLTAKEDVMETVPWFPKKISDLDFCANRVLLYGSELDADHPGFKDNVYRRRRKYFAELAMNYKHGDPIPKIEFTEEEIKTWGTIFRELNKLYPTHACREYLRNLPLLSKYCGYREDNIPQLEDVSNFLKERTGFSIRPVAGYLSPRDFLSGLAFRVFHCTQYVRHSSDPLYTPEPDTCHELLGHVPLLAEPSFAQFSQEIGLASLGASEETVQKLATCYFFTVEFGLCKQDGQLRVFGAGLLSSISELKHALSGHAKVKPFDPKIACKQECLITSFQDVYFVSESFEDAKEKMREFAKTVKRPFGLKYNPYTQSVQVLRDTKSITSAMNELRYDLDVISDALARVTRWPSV
The settings on record: amorphous form; cited from earlier work.

The next series concerns serotonin biosynthesis. Briefly: serotonin biomarkers in rat (serum serotonin, urinary 5-HIAA). The series is classed as in vivo. Conditions: 30 to 300 mg/kg/day, dose-dependent. As to the method: RVT-1201 (30 to 300 mg/kg/day) may yield a dose-dependent reduction in rat serum serotonin (−27% to −96%) and 24 h urinary output of 5-HIAA (−45% to −56%). HIAA is a metabolite that reflects total serotonin biosynthesis.

Series [3] in a line: pharmacokinetics in healthy human subjects. Conditions: humans, interpolation of KAR5417 AUC between 400 mg and 800 mg BID regimens. The series is classed as in vivo. As to the method:
as §2, §1

For series [4], the system named is PAH, monocrotaline prevention model. Briefly: monocrotaline prevention model of PAH. The series is classed as in vivo. Conditions: rat, oral RVT-1201 100 mg/kg/day.
Series [5] can be described thus: stability of crystalline polymorphs. In kind it is physicochemical. The settings on record: particularly at temperatures of less than 95° C. From the text:
The above-referenced compound can be used to prevent or treat PAH/APAH in either an amorphous or crystalline form. Two different polymorph crystalline forms are identified by x-ray powder diffraction patterns set forth in FIG. 1 (Form 3) and FIG. 2 (Form 1) as well as Tables 1 and 2 (Form 3) and Tables 3 and 4 (Form 1).

As for `CCOC(=O)[C@@H]1CC2(CCN(c3cc(O[C@H](c4ccc(Cl)cc4-c4ccccc4)C(F)(F)F)nc(N)n3)CC2)CN1` [RVT-1201, (S)-ethyl 8-(2-amino-6-((R)-1-(5-chloro-[1,1′-biphenyl]-2-yl)-2,2,2-trifluoroethoxy)pyrimidin-4-yl)-2,8-diazaspiro[4.5]decane-3-carboxylate], in the series with serotonin biomarkers, the “once daily administration versus BID or TID regimens” value is “comparable to BID or TID regimens”. The serotonin reduction in the series with serotonin biomarkers (75 mg/kg/day, divided dose studies) is recorded as approximately 65%. Moreover, the “mean change in plasma 5-HIAA” value in the series with 5-HIAA was “about −53%”. Also, the “effect on PAH” value in series [1] is given as “block or ameliorate PAH”. Also, the tolerability result in series [2] was “well tolerated”. The “efficacy in inhibiting TPH1 in mice” value on TPH1 is “demonstrated”. Besides, in the series with serotonin biosynthesis, the “reduction in 24 h urinary output of 5-HIAA” value was −45% to −56% and the “reduction in rat serum serotonin” value is listed as −27% to −96%. In addition, the “BID dose achieving target exposure associated with efficacy in rat models” value in [3] lay in the range of 500 to 600 mg. For the same compound, the “effect on PAH” value in series [4] is reported as “block or ameliorate PAH”.
Turning to `CCOC(=O)[C@@H]1CC2(CCN(c3cc(O[C@H](c4ccc(Cl)cc4-c4ccccc4)C(F)(F)F)nc(N)n3)CC2)CN1` [crystalline Form 3, (S)-ethyl 8-(2-amino-6-((R)-1-(5-chloro-[1,1′-biphenyl]-2-yl)-2,2,2-trifluoroethoxy)pyrimidin-4-yl)-2,8-diazaspiro[4.5]decane-3-carboxylate], the “stability and shelf life compared to crystalline Form 1 polymorph” value in series [5] is “substantially greater stability and shelf life”.
